Test results: patent US20210308101A1, “METHODS OF TREATING FIBROMYALGIA” (Aptinyx Inc., priority 2019, published 2021)
“Also recorded” adds a separate entry of the source.

Legend:
[1] = system: resting state functional connectivity; test: rs-fcMRI seed-based region of interest functional connectivity; type: in vivo, human
Text: Resting state functional connectivity magnetic resonance imaging (rs-fcMRI) also uses noninvasive techniques to map blood flow in the brain. In rs-fcMRI, neural connections between different areas of the brain are identified by mapping regions of synchronous blood flow fluctuations. Synchronous blood fluctuations are examined to determine the strength of neural connections between different brain regions.
Resting 6-minute scans, with subjects resting comfortably in the scanner with eyes open and fixated on a crosshair, were completed at the beginning of the scan session. Whole brain BOLD rs-fcMRI data were collected following same parameters used for evoked fMRI. Physiological data were also collected simultaneously with rs-fcMRI data, as cardiorespiratory fluctuations are known to influence rs-fcMRI intrinsic connectivity estimation within several brain networks
(§1) In order to quantify intrinsic brain connectivity, rs-fcMRI data were analyzed with both dual-regression ICA and seed-voxel approaches. These approaches are complementary, as they quantify intrinsic brain connectivity on a network level (dual regression probabilistic ICA) and a more specific region-focused level (seed-voxel).
(§2) Resting state functional connectivity MRI data were preprocessed and analyzed using statistical parametric mapping software package Version 12, the CONN functional connectivity toolbox, and the GIFT toolbar, all running on MATLAB Version 9.2 or later. Upon collection of rs-fcMRI data, physiological artifacts were first removed using a custom MATLAB algorithm and slice-time corrected using Functional Magnetic Resonance Imaging of the Brain Software Library software. Preprocessing steps included motion correction, realignment, registration, normalization to standard Montreal Neurological Institute template, and smoothing (full width at half maximum Gaussian kernel of 6 or 8 mm).
Seed to whole brain functional connectivity analysis was performed using the CONN toolbox, Version 15, running on […]. […] Spheres were created (5 mm radius) around peak voxel coordinates and white matter, CSF, and motion parameters were used as covariates of no interest. Seed-based analyses were also performed using regions of interest assessed with single voxel ^1H-MRS regions showing NYX-2925 effects on Glx level. Data were band pass filtered (0.01 to 0.1 Hz) to remove linear drifts and high frequency noise. First level analysis correlated the time course from the seed to all brain voxels, creating connectivity maps for each seed region. These connectivity maps were passed up to group-level analyses comparing differences in connectivity at the visits of interest in statistical parametric mapping.
(§3) Several analyses were conducted with the fMRI resting state and task data. Results were assessed by: 1) a primary analysis, where a finding was deemed significant with a corrected cluster level p<0.05, derived from an uncorrected voxel-wise p<0.001, and 2) an exploratory analysis, where a finding was deemed significant with an uncorrected voxel-wise p<0.005 and having a cluster greater than or equal to 80 contiguous voxels. Results that met significance in the primary analyses had connectivity values extracted and imported into SPSS v25 where paired t-tests were performed to assess for potential outliers contributing to the finding. Remaining data were then correlated with clinical measures using parametric bivariate Pearson correlations. Results were deemed significant at p<0.05.
Seed-based, region of interest, functional connectivity analyses were performed (n=18) for regions that were used to acquire ^1H-MRS data: dACC, perigenual anterior cingulate cortex (pgACC), right anterior insula cortex, right posterior insula cortex, precuneus, thalamus, and medial prefrontal cortex.

[2] = system: resting state network connectivity; test: rs-fcMRI group independent component analysis (DMN, SLN, DAN); type: in vivo, human
Procedure: as §1, §2
Group ICA was performed using the GIFT toolbar and component estimates were validated using Icasso software for 10 iterations. The number of independent components was limited to 25 to minimize splitting into subcomponents. Subject-specific spatial maps and time courses were back reconstructed using spatiotemporal regression and dual regression in GIFT. As for seed-based analyses, individual maps were passed onto group second level analyses in statistical parametric mapping, where differences in resting state network connectivity between placebo and drug images were performed.
as §3
Group ICA was performed (n=18) for the resting state scan, and the network components for the Default Mode Network, the Salience Network, and the Dorsal Attention Network were computed. […] With the exploratory analyses, resting state connectivity was decreased from the placebo visit to the NYX-2925 200 mg visit (placebo >NYX-2925 200 mg) between the Default Mode Network and the left mid cingulate cortex. […] In exploratory analyses, resting state functional connectivity was decreased from the placebo visit to the NYX-2925 200 mg visit (placebo >NYX-2925 200 mg) between the Salience Network and the right putamen/thalamus. Here, augmented connectivity between Salience Network, a network comprised of pronociceptive regions, and putamen and thalamus, regions also involved in nociception, was decreased following treatment with NYX-2925.

[3] = exploratory, placebo visit to NYX-2925 200 mg visit

Compound: CC(C)C(=O)N1CCC[C@]12CN([C@H](C(N)=O)[C@@H](C)O)C2=O [NYX-2925, (2S, 3R)-3-hydroxy-2-((R)-5-isobutyryl-1-oxo-2,5-diazaspiro[3.4]octan-2-yl)butanamide]
- connectivity right anterior insula cortex seed - right ventral anterior thalamic nucleus ([1]; baseline visit to NYX-2925 200 mg visit, PFWE=0.018): decreased
- connectivity right posterior insula cortex seed - dACC ([1]; exploratory analysis, placebo visit to NYX-2925 20 mg visit): decrease in connectivity
- connectivity precuneus - right anterior insula and left dACC ([1]; exploratory, baseline visit to NYX-2925 20 mg visit): decreased
- connectivity precuneus - right mid cingulate cortex ([1]; exploratory, placebo visit to NYX-2925 20 mg visit): Decreases in resting state functional connectivity
- connectivity precuneus seed - right posterior/mid cingulate cortex [1, 3]: decreased
- connectivity thalamus seed - right anterior prefrontal cortex and bilateral precuneus [1, 3]: decreases in connectivity
- functional connectivity dACC seed - right posterior insula cortex ([1]; placebo to NYX-2925 20 mg, not meeting cluster level correction significance): decreased connectivity
- functional connectivity pgACC seed - left precuneus/precentral gyrus ([1]; placebo visit to NYX-2925 20 mg visit, PFWE<0.00001): decreased
- connectivity medial prefrontal cortex seed - right anterior prefrontal cortex and right mid cingulate cortex ([1]; placebo visit to NYX-2925 200 mg visit, PFWE=0.003 and 0.036): Decreases were also observed
- functional connectivity pgACC seed - right inferior frontal gyrus ([1]; placebo visit to NYX-2925 200 mg visit, PFWE=0.008): decreased
- connectivity of precuneus seed ([1]; primary analyses): no significant results
- connectivity of right posterior insula cortex seed ([1]; primary analyses): no significant findings
- connectivity thalamus seed - bilateral cuneus ([1]; primary analysis, baseline visit to NYX-2925 200 mg visit, PFWE<0.00001): significant decrease in resting state connectivity
- functional connectivity of dACC seed to right superior temporal gyrus, left premotor/primary somatosensory cortex, right precuneus, left precentral gyrus/premotor cortex ([1]; primary analysis, placebo visit to NYX-2925 20 mg visit, PFWE 0.030-0.049): reduced connectivity; also recorded: decreased functional connectivity
- connectivity medial prefrontal cortex seed - right anterior prefrontal/dorsolateral prefrontal cortex ([1]; primary, baseline visit to NYX-2925 200 mg visit, PFWE=0.001): Significant decreases in resting state connectivity
- connectivity Default Mode Network - left mid cingulate cortex [2, 3]: decreased
- connectivity Salience Network - right putamen/thalamus [2, 3]: decreased
- Salience Network connectivity ([2]; primary analysis): No results met significance
- Default Mode Network connectivity ([2]; primary analysis, n=18): No results met significance
- Dorsal Attention Network connectivity ([2]; primary and exploratory analyses): no significant results
